Source: patent publication US20140249573A1, “METHODS AND DEVICES FOR OCCLUDING BLOOD FLOW TO AN ORGAN” (A.A. CASH TECHNOLOGY LTD., priority 2011, published 2014)
Several values for one entry are separate records, joined by “and”; a condition that tells them apart may be missing. Equal entries are not always repeated.

Legend:
ovary = settings: eight days after treatment
Method: (§1) The protocol and design of all parts of this study were approved by the Animal Research Ethics Committee of Israel. Three female pigs (The Institute of Animal Research, Kibbutz Lahav, Israel) weighing 60 Kg each, were anesthetized with 10 mg/kg intramuscular ketamine hydrochloride and 4 mg/kg xylazine hydrochloride (Vetmarket, Israel). One ovary of each pig was exposed by a longitudinal midline incision. A conventional gastric band (Lap-band; Allergen, Irvine, Calif., USA) was modified according to some embodiments of the invention, to occlude blood flow to the ovaries. The band was wound around the ovarian hilum, and a zip tie was placed on the center of the band ring to reduce the diameter of the band's aperture. 10 ml saline was injected via the band's port thus completely blocking blood flow through the ovarian and uterine arteries and veins. The color and the morphology of the ovary were observed after occlusion of blood flow as well as after the bands were released. The other ovary in each pig was left unprotected (i.e. was left with natural blood flow, and thus completely exposed to chemotherapy). Heparin was administered intravenously before occlusion to prevent or reduce blood coagulation within the ovary throughout the occlusion time interval and a few hours thereafter. A control pig was left untreated.
The ovaries blood supply was occluded for 16 hours after the drug administration interval (i.e. a total occlusion time interval exceeding 17 hours). The bands were then opened by drawing out the 10 ml of saline via the port.
Eight days after the chemo treatment the pigs were euthanized according to animal ethics procedures and the ovaries were removed and examined visually, removed, weighed and follicles were counted.

lymphocyte = settings: three female pigs, 60 mg/kg IV over 1 hour, the following day
Method: as §1, with “untreated. […]” for “untreated.”

O=P1(N(CCCl)CCCl)NCCCO1 (stereo not shown) [Cyclophosphamide]
size and number of follicles of occluded (protected) ovaries (ovary; all ovaries occluded during chemotherapy administration): comparable to the control animal
Weight of ovary, Occluded (ovary; ovary with blood supply occluded by band for more than 17 hours, 60 mg/kg IV over 1 hour, one value per pig, 60 mg/kg): 3.6 gr and 3.8 gr and 5.2 gr
visual appearance of unprotected ovaries (ovary; unprotected ovaries, in two of the three animals): visible signs of atrophy
lymphocyte counts, decreased to % of the initial level (lymphocyte): 12%
